PubChem BioAssay (NCI)
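Each compound was tested at five concentrations against cells in 96-well plates for 48 hours. GI50 is the concentration that inhibits growth by half. At the TGI there is no net growth.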

Experiments:
Experiment in all cases: growth of human tumour cells (NCI), 48 h
[1] = test system: MDA-MB-435
[2] = test system: HCT-116 colon
[3] = test system: SR leukemia
[4] = test system: EKVX NSCLC
[5] = test system: MOLT-4 leukemia
[6] = test system: CCRF-CEM leukemia
[7] = test system: NCI/ADR-RES ovarian
[8] = test system: MDA-MB-231 breast
[9] = test system: SNB-19 CNS
[10] = test system: CAKI-1 renal
[11] = test system: SF-295 CNS
[12] = test system: HCC-2998 colon
[13] = test system: OVCAR-4 ovarian
[14] = test system: SF-539 CNS
[15] = test system: NCI-H460 lung
[16] = test system: U251 CNS
[17] = test system: UACC-62 melanoma
[18] = test system: SN12C renal
[19] = test system: A498 renal
[20] = test system: NCI-H23 lung
[21] = test system: SK-MEL-2 melanoma
[22] = test system: MALME-3M melanoma
[23] = test system: RXF 393 renal
[24] = test system: DU-145 prostate
[25] = test system: SK-MEL-28 melanoma
[26] = test system: SW-620 colon

SMILES: COc1ccc(C(=O)/C=C/c2cccc([N+](=O)[O-])c2)c(OC)c1
- TGI [1]: > 50 µM
- GI50 [2]: 0.767 µM
- TGI [2]: 1.68 µM
- GI50 [3]: 0.678 µM
- TGI [3]: 4.02 µM
- GI50 [4]: > 50 µM
- TGI [4]: > 50 µM
- GI50 [5]: 1.17 µM
- TGI [5]: 3.88 µM
- GI50 [6]: 1.39 µM
- TGI [6]: 4.79 µM
- GI50 [7]: 1.53 µM
- TGI [7]: > 50 µM
- GI50 [8]: 1.92 µM
- TGI [8]: > 50 µM
- GI50 [9]: 1.46 µM
- TGI [9]: 4.37 µM
- GI50 [10]: 1.98 µM
- TGI [10]: > 50 µM
- GI50 [11]: 2.39 µM
- TGI [11]: > 50 µM
- GI50 [12]: 2.27 µM
- TGI [12]: > 50 µM
- GI50 [13]: 2.11 µM
- TGI [13]: > 50 µM
- GI50 [14]: 1.18 µM
- TGI [14]: 3.09 µM
- GI50 [15]: 1.27 µM
- TGI [15]: 3.31 µM
- GI50 [16]: 0.881 µM
- TGI [16]: 1.72 µM
- GI50 [17]: 1.14 µM
- TGI [17]: 2.79 µM
- GI50 [18]: 1.18 µM
- TGI [18]: 2.99 µM
- GI50 [19]: 11.1 µM
- TGI [19]: > 50 µM
- GI50 [20]: 2.61 µM
- TGI [20]: > 50 µM
- GI50 [21]: 12.4 µM
- TGI [21]: > 50 µM
- GI50 [22]: 3.56 µM
- TGI [22]: > 50 µM
- GI50 [23]: 1.13 µM
- TGI [23]: 2.36 µM
- GI50 [24]: 1.75 µM
- TGI [24]: > 50 µM
- GI50 [25]: 4.75 µM
- TGI [25]: > 50 µM
- GI50 [26]: 1.2 µM
- TGI [26]: 2.54 µM
